Measurements from patent publication US20110281807A1, “PLANT DISEASE CONTROL AGENT COMPRISING D-TAGATOSE AS ACTIVE INGREDIENT, AND PLANT DISEASE CONTROL METHOD” (NATIONAL UNIVERSITY CORPORATION KAGAWA UNIVERSITY, priority 2008, published 2011).
“And” between values parts separate entries of the source, which are not always exact repeats. Equal entries are not always repeated. Where two headings read alike, the source gives them in different places.

Legend:
[1] = tested on: Pseudoperonospora cubensis; conditions: alone
Protocol: Test plants (cucumber, variety: Sagami hanpaku) were seeded and grown until the one true leaf stage. D-tagatose alone was diluted to 5%, 1%, 0.5% and 0.1%, and the combination of D-tagatose and other saccharide were diluted to be 0.5% and 0.5% solution respectively with distilled water, and then 10 ml of the dilution was sprayed on the test plant. Three days after spraying of the solution, a sporangium suspension of Pseudoperonospora cubensis containing 1×10^3/ml were inoculated by spraying on test plants and then put them for 16 hours in an inoculation chamber (20° C. to 23° C.) to promote disease. Seven days after inoculation the disease severity of the test plants was observed and the effectiveness of test sample was judged. Tests were carried out using two plants for each test set and the disease severity of the test plants was judged in accordance with the following criteria. The preventive value was calculated from the degree of disease severity as in example 1.
Synergistic effect was determined by the Colby's equation below.
X is the observed effect, in percentage, of the first active ingredient and, and Y is the observed effect, in percentage, of the second active ingredient. E is the effect, in percentage, of the mixture expected from additive contribution of the individual components.

[2] = tested on: Pythium glaminicola; conditions: for Preventive value: 10 ml soil drench, from percentage of onset area after 2 weeks
Protocol: Four germinated rice seeds (variety: Koshihikari) were sowed in a pot (5×5 cm), which contains infected soil with Pythium glaminicola (mycelium 100 g/1 L soil). The pot was drenched with 10 ml of D-tagatose dilution and the seeds were covered with soil. After 2 weeks, the disease severity of the test plants per rice seedling in 25 cm^2 was observed and the effectiveness of test sample was judged. Tests were carried out in duplicate and the preventive value was calculated from percentage of onset area.

[3] = tested on: Sphaerotheca fuliginea; assay: cucumber powdery mildew, field test; conditions: for D.D.S (Degree of disease severity), Av / P.V. (Preventive value), Av / n/N × 100, Av: average of plots
Protocol: Test plants (cucumber, variety: Ancor) were grown until approximately 10 leaves. […] After the first spraying of the dilution, the test plants were inoculated with condia of suspension of Sphaerotheca fuliginea. The disease severity of the test plants was observed 7 days after the last spraying, and the effectiveness of test sample was judged. Tests were carried out in triplicate using 8 plants per each test. The disease severity of the test plants was judged in accordance with the following criteria. The preventive value was calculated from the degree of disease severity.
0 (No lesion) 1 (Lesion area was not more than 5% of the leaf area) 2 ((Lesion area was 5%-25% of the leaf area) 3 (Lesion area was 25%-50% of the leaf area) 4 (Lesion area was not less than 50% of the leaf area)

[4] = tested on: Pseudoperonospora cubensis; assay: cucumber downy mildew, field trial; type: in vivo; conditions: for D.D.S (Degree of disease severity), Av / P.V. (Preventive value), Av / n/N × 100, Av: average of plots; for D.D.S (Degree of disease severity) / P.V. (Preventive value) / n/N × 100 / Disease severity 0: number of leaves / Disease severity 1: number of leaves / Disease severity 2: number of leaves / Disease severity 3: number of leaves / Disease severity 4: number of leaves: per plot (a, b); for Disease severity 0: number of leaves / Disease severity 1: number of leaves / Disease severity 2: number of leaves / Disease severity 3: number of leaves / Disease severity 4: number of leaves: 50 leaves
[5] = tested on: Phytophthora infestans; type: in vivo; conditions: for Preventive value: inoculated 3 days after spraying
[6] = tested on: Phytophthora infestans; assay: whole plant or invertebrate; type: in vivo; conditions: Phytophthora infestans, in Solanum lycopersicum, 168 h, read-out: Preventive value
[7] = tested on: Pseudoperonospora cubensis; assay: cucumber downy mildew, pot test: preventive effect; conditions: for Preventive value (3 DAS): inoculated 3 days after spraying; for Preventive value (5 DAS): inoculated 5 days after spraying
Protocol: Test plants (cucumber, variety: Sagami hanpaku) were seeded and grown until the one true leaf stage. D-Tagatose was diluted to 5%, 1% and 0.5% with distilled water and then 10 ml of the dilution was sprayed on the test plant. Three or five days after spraying, a sporangium suspension of Pseudoperonospora cubensis containing 1×10^3/ml were inoculated by spraying on test plants and then the plants were put for 16 hours in an incubation chamber (20° C. to 23° C.) to promote disease. Seven days after inoculation the disease severity of the test plants was observed and the effectiveness of test sample was judged. Tests were carried out using two plants for each test set and the disease severity of the test plants was judged in accordance with the following criteria. The preventive value was calculated from the degree of the disease severity.
(§1) 0 (No lesion) 1 (Lesion area was not more than 40%) 2 ((Lesion area was 40%-80%) 3 (Lesion area was not less than 80%)
Preventive value=100{1−(n/N)} N=disease severity of untreated leaf, n=disease severity of the tested leaf

[8] = tested on: Botrytis cinerea; conditions: Botrytis cinerea, in Solanum lycopersicum, 168 h, read-out: Preventive value
Protocol: Test plants (tomato, variety: Ogata-fukujyu) were seeded and grown until the three leaf stage. D-Tagatose and fungicide were diluted to 10000 ppm and the concentrations liste in table 23, respectively, with distilled water and 10 ml of the dilution was sprayed on the plants. Three days after spraying the solution, condia suspension of Botrytis cinerea were inoculated by spraying on test plants and then put for 16 hours in an inoculation chamber (20° C. to 23° C.) to promote disease. Seven days after inoculation, the disease severity of the test plants was observed and the effectiveness of test sample was judged.

[9] = tested on: Pseudoperonospora cubensis; conditions: Pseudoperonospora cubensis, in Cucumis sativus, 168 h, read-out: Preventive value
Protocol: Test plants (cucumber, variety: Sagami hanpaku) were seeded and grown until the one true leaf stage. And then, a sporangium suspension of Pseudoperonospora cubensis containing 1×10^3/ml were spraying for inoculation on the back side of the leaves of test plants and then put for 16 hours in an inoculation chamber (20° C. to 23° C.) to promote disease. For a curative test, the inoculated plants as described above were used.
D-Tagatose was diluted to 5000 ppm and the fungicides were diluted to the concentrations listed in table 15, with distilled water, and 10 ml of the dilution was sprayed. Seven days after inoculation the disease severity of the test plants was observed and the effectiveness of test sample was judged.

[10] = tested on: Sphaerotheca fuliginea; conditions: Podosphaera fuliginea, in Cucumis sativus, 168 h, read-out: Preventive value
Protocol: Test plants (cucumber, variety: Sagami hanpaku) were seeded and grown until the one true leaf stage. D-Tagatose and fungicide were diluted to 5000 ppm and the concentrations listed in table 20, respectively, with distilled water and 10 ml of the dilution was sprayed thoroughly on the plants. Three days after spraying, a condia suspension containing of Sphaerotheca fuliginea were inoculated by spraying on test plants.
Seven days after inoculation the disease severity of the test plants was observed and the effectiveness of test sample was judged.

[11] = tested on: Sphaerotheca fuligine; assay: cucumber powdery mildew, pot test: preventive effect; conditions: for Preventive value: inoculated 3 days after spraying
Protocol: Test plants (cucumber, variety: Sagami-hanpaku) were seeded and grown until the one true leaf stage. D-tagatose was diluted to 5% and 1% with distilled water and then 10 ml of the dilution was sprayed on the test plant. Three days after spraying, a condia suspension of Sphaerotheca fuligine was inoculated by spraying on test plants. Seven days after inoculation the disease severity of the test plants was observed and the effectiveness of test sample was judged. Tests were carried out using two plants for each test set and the disease severity of the test plants was judged in accordance with the following criteria.

[12] = tested on: Puccinia recondita; assay: wheat brown rust, field trial
Protocol: Test plants (variety: Nourin 61 gou) were sowed and grown until heading stage. D-Tagatose was diluted to 5% with distilled water and sprayed thoroughly on the plants two times every 8 days. Three days after the first spraying of the dilution, wheat leaves inoculated with wheat fusarium blight (Puccinia recondita) were kept in the test plants. The disease severity of the test plants was observed 21 days after last spraying and the effectiveness of test sample was judged. Tests were carried out in duplicate. One plot of each test was 5 m^2. The disease severity of the test plants was judged in accordance with the following criteria. The preventive value was calculated from the degree of disease severity.

[13] = tested on: Puccinia recondita; conditions: Puccinia recondita, in Triticum aestivum, 168 h, read-out: Preventive value
Protocol: Test plants (variety: Nourin 61 gou) were sowed and grown until two leaves stage.
D-Tagatose and fungicide were diluted to 10000 ppm and the concentration listed in table 19, respectively, with distilled water, and 10 ml of the dilution was sprayed thoroughly on the plants. Three days after the spraying of the dilution, the plants were inoculated with Puccinia recondita containing 1×10^3/ml and then put for 16 hours in an inoculation chamber (20° C. to 23° C.) to promote disease. Seven days after inoculation the disease severity of the test plants was observed and the effectiveness of test sample was judged.

[14] = tested on: Erysiphe graminis f.sp. hordei; conditions: Blumeria graminis, in Hordeum vulgare, 168 h, read-out: Preventive value
Protocol: Test plants (barley, variety: Akashinriki) were seeded and grown until the one leaf stage. D-tagatose and fungicide were diluted to 5000 ppm and the concentrations listed in table 21, respectively, with distilled water and 10 ml of the dilution was sprayed thoroughly on the plants. Three days after spraying, a condia suspension of Erysiphe graminis f.sp. hordei was inoculated by spraying on test plants. 7 days after inoculation the disease severity of the test plants was observed and the effectiveness of test sample was judged.

[15] = tested on: Pythium aphanidermatum; conditions: for Preventive value: 10 ml soil drench, from germination rate after 2 weeks
Protocol: Five seeds of test plants (cucumber, variety: Sagami hanpaku) were sowed in a pot (5×5 cm), which contains infested soil with Pythium aphanidermatum (mycelium 100 g/1 L soil) and the seeds were covered with the soil. […] After 2 weeks, the disease severity of the test plants was observed and the effectiveness of test sample was judged. Tests were carried out in triplicate using 5 plants for each test set and the preventive value was calculated from the germination rate.

[16] = tested on: Pseudoperonospora cubensis; conditions: Pseudoperonospora cubensis, in Cucumis sativus, 168 h, read-out: Preventive value; remark: listed apart in the source
Protocol: Test plants (cucumber, variety: Sagami hanpaku) were seeded and grown until the one true leaf stage. D-Tagatose was diluted to 5000 ppm and the fungicides were diluted to the concentrations listed in table 14, with distilled water. And then 10 ml of the dilution was sprayed on the test plant. Three days after spraying of the solution, a sporangium suspension of Pseudoperonospora cubensis containing 1×10^3/ml were inoculated by spraying on test plants and then put for 16 hours in an inoculation chamber (20° C. to 23° C.) to promote disease. Seven days after inoculation the disease severity of the test plants was observed and the effectiveness of the test sample was judged. Tests were carried out using two plants for each test set and the disease severity of the test plants was judged in accordance with the following criteria. The preventive value was calculated from the degree of disease severity.
as §1
Preventive value=100{1−(n/N)} N=disease severity of untreated leaf, n=disease severity of the test leaf Synergistic effect was determined by Colby's equation.

[17] = tested on: Pythium aphanidermatum; assay: cucumber damping-off, pot test: soil drench of D-tagatose combined with fungicides; conditions: Pythium aphanidermatum, in Cucumis sativus, soil, 336 h, read-out: Preventive value
Protocol: Five seeds of test plants (cucumber, variety: Sagami hanpaku) were sowed in a pot (5×5 cm), which contains infested soil with Pythium aphanidermatum (mycelium 100 g/1 L soil) and was covered with soil. D-Tagatose was diluted to 5000 ppm and the fungicides were diluted to the concentrations listed in table 18, with distilled water. The pot was drenched with 10 ml of the dilution. After 2 weeks, the disease severity of the test plants was observed and the effectiveness of test sample was judged. Tests were carried out in triplicate using 5 plants for each test set and the preventive value was calculated from the germination rate.

[18] = tested on: Peronospora parasitica; assay: cabbage downy mildew, pot test: preventive effect; conditions: for Preventive value: inoculated 3 days after spraying
Protocol: Test plants (cabbage, variety: Shikidori) were seeded and grown until 4 leaves stage. […] Three days after spraying, a suspension containing condia of cucumber downy mildew (Peronospora parasitica) was inoculated by spraying on test plants. Seven days after inoculation the disease severity of the test plants was observed and the effectiveness of test sample was judged. Tests were carried out using two plants for each test set and the disease severity of test plants was judged in accordance with the following criteria. The preventive value was calculated from the degree of disease severity as in Example 1.

[19] = tested on: Pseudoperonospora cubensis; assay: cucumber downy mildew, pot test: curative effect
Protocol: Test plants (cucumber, variety: Sagami hanpaku) were seeded and grown until the one true leaf stage. And then a sporangium suspension of Pseudoperonospora cubensis containing 1×10^3/ml were sprayed on the back side of the leaves of test plants for inoculation and then the plants were put for 16 hours in an inoculation chamber (20° C. to 23° C.) to promote disease. For a curative test, the inoculated plants as described above were used.
D-Tagatose was diluted to 5%, 1% and 0.5% with distilled water and then 10 ml of the dilution was sprayed on the test plant. Seven days after the spraying of D-tagatose the disease severity of the test plants was observed and the effectiveness of test sample was judged. Tests were carried out using two plants for each test set and the disease severity of the test plants was judged. The control value was calculated from the degree of disease severity as in Example 1.

[20] = 10000 ppm, per plot (1, 2), 50 leaves
[21] = 50000 ppm, per plot (1, 2), 50 leaves
[22] = 50000 ppm spray, listed as D-tagatose
[23] = 50000 ppm, per plot (1, 2), 100 leaves

Compound: O=C(CO)[C@@H](O)[C@@H](O)[C@H](O)CO [D-Tagatose, D-tagatose]
- Preventive value ([1]; 1000 ppm): 0.0
- Preventive value ([1]; 5000 ppm): 8.3
- Preventive value ([1]; 10000 ppm): 98.3
- Preventive value ([1]; 50000 ppm): 100.0
- Preventive value ([2]; 10000 ppm): 77.3
- Preventive value ([2]; 50000 ppm): 96.2
- effectiveness in words ([2]; soil drench): effective enough
- D.D.S (Degree of disease severity), Av ([3]; 10000 ppm): 5.75
- P.V. (Preventive value), Av ([3]; 10000 ppm): 94.0
- n/N × 100, Av ([3]; 10000 ppm): 15.0
- D.D.S (Degree of disease severity) ([3]; 10000 ppm, per plot (1, 2)): 8.00
- P.V. (Preventive value) ([3]; 10000 ppm, per plot (1, 2)): 96.4 and 91.7
- Disease severity 0: number of leaves [3, 20]: 46 and 39
- Disease severity 3: number of leaves [3, 20]: 1
- Disease severity 4: number of leaves [3, 20]: 0
- D.D.S (Degree of disease severity), Av ([3]; 50000 ppm): 1.25
- P.V. (Preventive value), Av ([3]; 50000 ppm): 98.7
- n/N × 100, Av ([3]; 50000 ppm): 5.0
- D.D.S (Degree of disease severity) ([3]; 50000 ppm, per plot (1, 2)): 1.00 and 1.50
- P.V. (Preventive value) ([3]; 50000 ppm, per plot (1, 2)): 99.0 and 98.4
- n/N × 100 ([3]; 50000 ppm, per plot (1, 2)): 4.0 and 6.0
- Disease severity 0: number of leaves [3, 21]: 48 and 47
- Disease severity 1: number of leaves [3, 21]: 2 and 3
- Disease severity 2: number of leaves [3, 21]: 0
- Disease severity 3: number of leaves [3, 21]: 0
- Disease severity 4: number of leaves [3, 21]: 0
- effectiveness in words ([3]; field test): effective enough
- D.D.S (Degree of disease severity), Av ([4]; 10000 ppm): 2.25
- P.V. (Preventive value), Av ([4]; 10000 ppm): 96.5
- n/N × 100, Av ([4]; 10000 ppm): 9.0
- D.D.S (Degree of disease severity) ([4]; 10000 ppm): 3.00 and 1.50
- P.V. (Preventive value) ([4]; 10000 ppm): 95.4 and 97.7
- n/N × 100 ([4]; 10000 ppm): 12.0 and 6.0
- Disease severity 0: number of leaves ([4]; 10000 ppm): 44 and 47
- Disease severity 1: number of leaves ([4]; 10000 ppm): 6 and 3
- Disease severity 2: number of leaves ([4]; 10000 ppm): 0
- Disease severity 3: number of leaves ([4]; 10000 ppm): 0
- Disease severity 4: number of leaves ([4]; 10000 ppm): 0
- D.D.S (Degree of disease severity), Av ([4]; 50000 ppm): 2.50
- P.V. (Preventive value), Av ([4]; 50000 ppm): 96.1
- n/N × 100, Av ([4]; 50000 ppm): 10.0
- D.D.S (Degree of disease severity) ([4]; 50000 ppm): 3.00 and 2.00
- P.V. (Preventive value) ([4]; 50000 ppm): 95.4 and 96.9
- n/N × 100 ([4]; 50000 ppm): 12.0 and 8.0
- Disease severity 0: number of leaves ([4]; 50000 ppm): 44 and 46
- Disease severity 1: number of leaves ([4]; 50000 ppm): 6 and 4
- Disease severity 2: number of leaves ([4]; 50000 ppm): 0
- Disease severity 3: number of leaves ([4]; 50000 ppm): 0
- Disease severity 4: number of leaves ([4]; 50000 ppm): 0
- effectiveness in words ([4]; field test): effective enough
- Preventive value ([5]; 50000 ppm spray): 28.3
- Preventive value ([5]; 100000 ppm spray): 58.3
- effectiveness in words ([5]; foliar spray): effective enough
- pest or weed control at 5000 ppm [6]: 0%
- pest or weed control at 10000 ppm [6]: 40%
- Preventive value (3 DAS) ([7]; 5000 ppm spray): 49.2
- Preventive value (5 DAS) ([7]; 5000 ppm spray): 37.5
- Preventive value (3 DAS) ([7]; 10000 ppm spray): 99.2
- Preventive value (5 DAS) ([7]; 10000 ppm spray): 90.0
- Preventive value (5 DAS) ([7]; 10000 ppm spray, listed as D-tagatose): 90
- Preventive value (3 DAS) ([7]; 50000 ppm spray): 100.0
- Preventive value (3 DAS) [7, 22]: 100
- Preventive value (5 DAS) ([7]; 50000 ppm spray): 100.0
- Preventive value (5 DAS) [7, 22]: 100
- pest or weed control at 10000 ppm [8]: 0%
- pest or weed control at 50000 ppm [8]: 17%
- pest or weed control at 5000 ppm [9]: 33%
- pest or weed control at 10000 ppm [9]: 73%
- pest or weed control at 5000 ppm [10]: 40%
- pest or weed control at 10000 ppm [10]: 93%
- Preventive value ([11]; 10000 ppm spray): 20.0
- Preventive value ([11]; 50000 ppm spray): 87.5
- effectiveness in words ([11]; foliar spray): effective enough
- D.D.S (Degree of disease severity), Av ([12]; 50000 ppm, average of plots): 6.1
- D.D.S (Degree of disease severity) ([12]; 50000 ppm, per plot (1, 2)): 4.7 and 7.5
- Leaves number(n) of disease severity 0 [12, 23]: 76 and 68
- Leaves number(n) of disease severity 1 [12, 23]: 22 and 25
- Leaves number(n) of disease severity 4 [12, 23]: 0
- Leaves number(n) of disease severity 5 [12, 23]: 0
- Leaves number(n) of disease severity 6 [12, 23]: 0
- P.V. (Preventive value), Av ([12]; 50000 ppm, sprayed two times every 8 days, rated 21 days after last spraying): 92.5
- effectiveness in words ([12]; field trial): effective enough
- pest or weed control at 10000 ppm [13]: 17%
- pest or weed control at 50000 ppm [13]: 50%
- pest or weed control at 5000 ppm [14]: 50%
- pest or weed control at 10000 ppm [14]: 73%
- Preventive value ([15]; 10000 ppm): 70.0
- Preventive value ([15]; 50000 ppm): 92.5
- effectiveness in words ([15]; soil drench): effective enough
- pest or weed control at 5000 ppm [16]: 40%
- pest or weed control at 10000 ppm [16]: 83%
- pest or weed control at 5000 ppm [17]: 33%
- pest or weed control at 10000 ppm [17]: 83%
- Preventive value ([18]; 10000 ppm spray): 90.1
- Preventive value ([18]; 50000 ppm spray): 95.1
- effectiveness in words ([18]; foliar spray): effective enough
- Preventive value (control value) ([19]; 5000 ppm sprayed after inoculation (curative)): 22.5
- Preventive value (control value) ([19]; 10000 ppm sprayed after inoculation (curative)): 91.7
- Preventive value (control value) ([19]; 50000 ppm sprayed after inoculation (curative)): 100.0
- Preventive value (control value) ([19]; 50000 ppm sprayed after inoculation (curative), listed as D-tagatose): 100
- effectiveness in words ([19]; curative test condition): effective enough
